# In ChEMBL document CHEMBL5321219, “Selective degradation of cellular BRD3 and BRD4-L promoted by PROTAC molecules in six cancer cell lines” (Eur J Med Chem, 2023):
# Activity calls are given as the source filed them. The calls are words filed in the database; no cut-off is given here.
# Experiments:
# [1] = system: MM1.S; assay: Induction of cell cycle arrest in human MM1.S cells assessed as accumulation of cells at G1 phase at 3 nM incubated for 24 hrs by flow cytometry analysis (reference value: 56.32%); type: functional
# [2] = system: MM1.S; assay: Antiproliferative activity against human MM1.S cells assessed as cell growth inhibition measured after 4 days by CellTitre-Glo assay; type: functional, cell-based; conditions: 96 h
# [3] = biological target: T1, Protein cereblon/Bromodomain-containing protein 3 (Homo sapiens) (UniProt Q15059+Q96SW2); assay: PROTAC activity at CRBN/BRD3 in human MM1.S cells assessed as induction of protein degradation measured after 24 hrs by Western blot analysis; type: cell-based
# T1 sequence (Q15059 2-726 limits assumed): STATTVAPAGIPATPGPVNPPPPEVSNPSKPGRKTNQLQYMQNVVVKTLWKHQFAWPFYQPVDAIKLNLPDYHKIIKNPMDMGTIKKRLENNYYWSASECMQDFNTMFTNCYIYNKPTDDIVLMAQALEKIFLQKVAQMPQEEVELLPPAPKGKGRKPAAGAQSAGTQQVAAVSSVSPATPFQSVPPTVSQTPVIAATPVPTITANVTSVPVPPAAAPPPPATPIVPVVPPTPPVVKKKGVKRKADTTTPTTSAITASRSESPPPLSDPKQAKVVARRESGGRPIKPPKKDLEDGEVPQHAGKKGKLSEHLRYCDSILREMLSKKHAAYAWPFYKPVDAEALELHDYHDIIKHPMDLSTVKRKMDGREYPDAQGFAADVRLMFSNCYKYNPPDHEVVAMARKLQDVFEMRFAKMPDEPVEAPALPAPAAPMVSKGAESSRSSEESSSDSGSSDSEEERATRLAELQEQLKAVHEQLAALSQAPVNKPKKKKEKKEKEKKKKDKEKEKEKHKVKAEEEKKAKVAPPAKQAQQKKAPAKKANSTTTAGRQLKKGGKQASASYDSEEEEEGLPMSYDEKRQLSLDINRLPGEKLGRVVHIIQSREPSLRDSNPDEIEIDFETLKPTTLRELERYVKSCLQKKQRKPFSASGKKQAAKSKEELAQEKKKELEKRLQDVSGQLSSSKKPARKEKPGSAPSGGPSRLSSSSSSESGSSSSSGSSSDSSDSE
# T1 sequence (Q96SW2 whole entry partner): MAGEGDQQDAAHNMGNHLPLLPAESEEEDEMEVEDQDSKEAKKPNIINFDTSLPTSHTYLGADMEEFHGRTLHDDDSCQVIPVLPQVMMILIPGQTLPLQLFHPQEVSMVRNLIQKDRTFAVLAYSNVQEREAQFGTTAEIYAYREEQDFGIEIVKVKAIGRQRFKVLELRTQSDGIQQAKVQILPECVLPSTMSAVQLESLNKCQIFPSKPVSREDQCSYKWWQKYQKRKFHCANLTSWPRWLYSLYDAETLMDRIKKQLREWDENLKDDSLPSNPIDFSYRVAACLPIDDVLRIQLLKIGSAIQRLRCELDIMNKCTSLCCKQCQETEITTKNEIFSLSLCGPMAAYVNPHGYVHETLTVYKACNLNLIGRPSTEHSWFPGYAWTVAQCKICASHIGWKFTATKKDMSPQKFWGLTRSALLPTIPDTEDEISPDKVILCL
# [4] = biological target: T1, Protein cereblon/Bromodomain-containing protein 3 (Homo sapiens); assay: PROTAC activity at CRBN/BRD3 in human MM1.S cells assessed as induction of protein degradation at 30 nM measured after 3 to 6 hrs by Western blot analysis; type: cell-based; conditions: time 3-6 hrs
# [5] = biological target: T2, Protein cereblon/Bromodomain-containing protein 2 (Homo sapiens) (UniProt P25440+Q96SW2); assay: PROTAC activity at CRBN/BRD2 in human MM1.S cells assessed as induction of protein degradation at 30 nM measured around 24 hrs by Western blot analysis; type: cell-based
# T2 sequence (P25440 whole entry, looked up): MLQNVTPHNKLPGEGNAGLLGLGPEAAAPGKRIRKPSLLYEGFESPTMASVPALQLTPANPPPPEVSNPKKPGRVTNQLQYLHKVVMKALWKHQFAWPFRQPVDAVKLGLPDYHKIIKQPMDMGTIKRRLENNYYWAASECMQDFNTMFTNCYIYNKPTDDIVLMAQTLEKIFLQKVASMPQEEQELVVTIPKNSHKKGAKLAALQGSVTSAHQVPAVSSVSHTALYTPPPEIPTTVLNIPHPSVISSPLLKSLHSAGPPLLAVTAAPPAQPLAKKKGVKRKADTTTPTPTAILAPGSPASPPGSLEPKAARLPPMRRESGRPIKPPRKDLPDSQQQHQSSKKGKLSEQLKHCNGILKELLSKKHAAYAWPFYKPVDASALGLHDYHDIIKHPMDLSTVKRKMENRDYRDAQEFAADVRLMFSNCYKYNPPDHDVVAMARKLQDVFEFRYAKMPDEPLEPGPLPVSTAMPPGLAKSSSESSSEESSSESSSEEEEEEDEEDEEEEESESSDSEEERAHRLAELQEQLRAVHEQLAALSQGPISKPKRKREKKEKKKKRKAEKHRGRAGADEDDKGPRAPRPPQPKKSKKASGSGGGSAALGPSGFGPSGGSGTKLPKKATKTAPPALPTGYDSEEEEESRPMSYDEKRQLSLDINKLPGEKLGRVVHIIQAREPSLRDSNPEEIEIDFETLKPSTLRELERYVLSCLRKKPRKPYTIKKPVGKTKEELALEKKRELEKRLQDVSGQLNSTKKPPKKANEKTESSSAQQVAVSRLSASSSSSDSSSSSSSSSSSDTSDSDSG
# T2 sequence (Q96SW2 whole entry, looked up): as the sequence (Q96SW2 whole entry partner) above
# [6] = biological target: T2, Protein cereblon/Bromodomain-containing protein 2 (Homo sapiens); assay: PROTAC activity at CRBN/BRD2 in human MCF7 cells assessed as induction of protein degradation at 30 nM measured around 24 hrs by Western blot analysis; type: cell-based
# [7] = biological target: T3, Protein cereblon/Bromodomain-containing protein 4 (Homo sapiens) (UniProt O60885+Q96SW2); assay: PROTAC activity at CRBN/BRD4-L in human HGC-27 cells assessed as induction of protein degradation at 30 nM measured after 8 to 24 hrs by Western blot analysis; type: cell-based; conditions: time 8-24 hrs
# T3 sequence (Q96SW2 whole entry, looked up, other chains not shown): as the sequence (Q96SW2 whole entry partner) above
# [8] = system: MM1.S; assay: Downregulation of c-Myc protein expression in human MM1.S cells at 0.1 to 30 nM measured after 24 hrs by Western blot analysis; type: functional, cell-based; conditions: dose 0.1-30 nM
# [9] = biological target: T1, Protein cereblon/Bromodomain-containing protein 3 (Homo sapiens); assay: PROTAC activity at CRBN/BRD3 in human A549 cells assessed as induction of protein degradation measured after 24 hrs by Western blot analysis; type: cell-based; conditions: dose 3-1000 nM
# [10] = biological target: T1, Protein cereblon/Bromodomain-containing protein 3 (Homo sapiens); assay: PROTAC activity at CRBN/BRD3 in human HepG2 cells assessed as induction of protein degradation measured after 24 hrs by Western blot analysis; type: cell-based; conditions: dose 10-3000 nM
# [11] = biological target: T3, Protein cereblon/Bromodomain-containing protein 4 (Homo sapiens); assay: PROTAC activity at CRBN/BRD4-L in human MCF7 cells assessed as induction of protein degradation measured after 24 hrs by Western blot analysis; type: cell-based; conditions: dose 1-300 nM
# [12] = biological target: T3, Protein cereblon/Bromodomain-containing protein 4 (Homo sapiens); assay: PROTAC activity at CRBN/BRD4-L in human A549 cells assessed as induction of protein degradation measured after 24 hrs by Western blot analysis; type: cell-based; conditions: dose 3-1000 nM
# [13] = biological target: T3, Protein cereblon/Bromodomain-containing protein 4 (Homo sapiens); assay: PROTAC activity at CRBN/BRD4-L in human HepG2 cells assessed as induction of protein degradation measured after 24 hrs by Western blot analysis; type: cell-based; conditions: dose 10-3000 nM
# [14] = biological target: T3, Protein cereblon/Bromodomain-containing protein 4 (Homo sapiens); assay: PROTAC activity at CRBN/BRD4-L in human MV4-11 cells assessed as induction of protein degradation at 0.1 to 30 nM measured after 24 hrs by Western blot analysis; type: cell-based; conditions: dose 0.1-30 nM
# [15] = biological target: T2, Protein cereblon/Bromodomain-containing protein 2 (Homo sapiens); assay: PROTAC activity at CRBN/BRD2 in human HGC-27 cells assessed as induction of protein degradation at 0.1 to 30 nM measured after 24 hrs by Western blot analysis; type: cell-based; conditions: dose 0.1-30 nM
# [16] = biological target: T2, Protein cereblon/Bromodomain-containing protein 2 (Homo sapiens); assay: PROTAC activity at CRBN/BRD2 in human HepG2 cells assessed as induction of protein degradation at 10 to 3000 nM measured after 24 hrs by Western blot analysis; type: cell-based; conditions: dose 10-3000 nM
# [17] = biological target: T3, Protein cereblon/Bromodomain-containing protein 4 (Homo sapiens); assay: PROTAC activity at CRBN/BRD4-S in human HGC-27 cells assessed as induction of protein degradation at 0.1 to 30 nM measured after 24 hrs by Western blot analysis; type: cell-based; conditions: dose 0.1-30 nM
# [18] = biological target: T3, Protein cereblon/Bromodomain-containing protein 4 (Homo sapiens); assay: PROTAC activity at CRBN/BRD4-S in human MCF7 cells assessed as induction of protein degradation at 1 to 300 nM measured after 24 hrs by Western blot analysis; type: cell-based; conditions: dose 1-300 nM
# [19] = biological target: T2, Protein cereblon/Bromodomain-containing protein 2 (Homo sapiens); assay: PROTAC activity at CRBN/BRD2 in human U-937 cells assessed as induction of protein degradation by Western blot analysis; type: cell-based
# [20] = system: MM1.S; assay: Downregulation of BRD4 expression in human MM1.S cells by proteomic analysis; type: functional, cell-based
# [21] = biological target: T1, Protein cereblon/Bromodomain-containing protein 3 (Homo sapiens); assay: PROTAC activity at CRBN/BRD3 in human MM1.S cells assessed as induction of protein degradation at 30 nM pretreated with (6R)-N-(4-chlorophenyl)-1-methyl-8-(1-methyl-1H-pyrazol-4-yl)-5,6-dihydro-4H-benzo[f][1,2,4]triazolo[4,3-a]azepin-6-amine for 2 hrs followed by compound addition and measured after 4 hrs by Western blot analysis; type: cell-based
# [22] = biological target: T1, Protein cereblon/Bromodomain-containing protein 3 (Homo sapiens); assay: PROTAC activity at CRBN/BRD3 in human MM1.S cells assessed as induction of protein degradation at 30 nM pretreated with lenalidomide for 2 hrs followed by compound addition and measured after 4 hrs by Western blot analysis; type: cell-based
# [23] = biological target: T3, Protein cereblon/Bromodomain-containing protein 4 (Homo sapiens); assay: PROTAC activity at CRBN/BRD4-L in human MM1.S cells assessed as induction of protein degradation at 30 nM pretreated with lenalidomide for 2 hrs followed by compound addition and measured after 4 hrs by Western blot analysis; type: cell-based
# [24] = biological target: T1, Protein cereblon/Bromodomain-containing protein 3 (Homo sapiens); assay: PROTAC activity at CRBN/BRD3 in human MM1.S cells assessed as induction of protein degradation at 30 nM by Western blot analysis; type: cell-based; conditions: TDE = time-dependent effect
# [25] = system: MM1.S; assay: Induction of cell cycle arrest in human MM1.S cells assessed as accumulation of cells at G1 phase at 1 nM incubated for 24 hrs by flow cytometry analysis (reference value: 56.32%); type: functional
# [26] = system: MM1.S; assay: Induction of cell cycle arrest in human MM1.S cells assessed as accumulation of cells at G2 phase at 1 nM incubated for 24 hrs by flow cytometry analysis (reference value: 14.68%); type: functional
# [27] = system: MM1.S; assay: Induction of cell cycle arrest in human MM1.S cells assessed as accumulation of cells at G1 phase at 30 nM incubated for 24 hrs by flow cytometry analysis (reference value: 56.32%); type: functional
# [28] = system: MM1.S; assay: Induction of cell cycle arrest in human MM1.S cells assessed as accumulation of cells at G2 phase at 30 nM incubated for 24 hrs by flow cytometry analysis (reference value: 14.68%); type: functional
# [29] = system: MM1.S; assay: Induction of cell cycle arrest in human MM1.S cells assessed as accumulation of cells at G2 phase at 100 nM incubated for 24 hrs by flow cytometry analysis (reference value: 14.68%); type: functional
# [30] = system: MM1.S; assay: Induction of cell cycle arrest in human MM1.S cells assessed as accumulation of cells at G1 phase at 300 nM incubated for 24 hrs by flow cytometry analysis (reference value: 56.32%); type: functional
# [31] = system: MM1.S; assay: Induction of cell cycle arrest in human MM1.S cells assessed as accumulation of cells at S phase at 300 nM incubated for 24 hrs by flow cytometry analysis (reference value: 22.37%); type: functional
# [32] = system: MM1.S; assay: Induction of cell cycle arrest in human MM1.S cells assessed as accumulation of cells at G2 phase at 300 nM incubated for 24 hrs by flow cytometry analysis (reference value: 14.68%); type: functional
# [33] = biological target: T3, Protein cereblon/Bromodomain-containing protein 4 (Homo sapiens); assay: PROTAC activity at CRBN/BRD4-S in human MM1.S cells assessed as induction of protein degradation at 0.1 to 30 nM measured after 24 hrs by Western blot analysis; type: cell-based; conditions: dose 0.1-30 nM
smiles,measurement,setting,value
Cc1nnc2n1-c1ccc(-c3ccc(CNCCCCc4cccc5c4CN(C4CCC(=O)NC4=O)C5=O)cc3)cc1C(Nc1ccc(Cl)cc1)CC2 (stereo not drawn),Activity,[1],62.34%
same,IC50,[2],95.2 nM
same,Activity,[3],Dose-Dependent Effect
same,Activity,[4],Active
same,Activity,[5],Active
same,Activity,[6],Active
same,Activity,[7],Active
same,Activity,[8],Active
same,Activity,[9],Dose-Dependent Effect
same,Activity,[10],Dose-Dependent Effect
same,Activity,[11],Dose-Dependent Effect
same,Activity,[12],Dose-Dependent Effect
same,Activity,[13],Dose-Dependent Effect
same,Activity,[14],Active
same,Activity,[15],inactive
same,Activity,[16],inactive
same,Activity,[17],inactive
same,Activity,[18],inactive
same,Activity,[19],Dose-Dependent Effect
same,Activity,[20],Active
same,Activity,[21],inactive
same,Activity,[22],inactive
same,Activity,[23],inactive
same,Activity,[24],Tde
same,Activity,[25],58.49%
same,Activity,[26],15.24%
same,Activity,[27],65.17%
same,Activity,[28],15.18%
same,Activity,[29],16.63%
same,Activity,[30],68.85%
same,Activity,[31],13.79%
same,Activity,[32],15.38%
same,Activity,[33],inactive
